Laboratory results from US20240002438A1, “MELANOCORTIN LIGANDS AND METHODS OF USE THEREOF” (REGENTS OF THE UNIVERSITY OF MINNESOTA, priority 2021, published 2024).
Where two headings read alike, the source gives them in different places. Where a SMILES comes first, the peptide text is derived from it. Primed or numbered codes have the meaning given here. [ ]: non-standard residue; d: D form. dBip = N[C@H](Cc1ccc(-c2ccccc2)cc1)C(=O)O; Oic = O=C(O)[C@@H]1C[C@@H]2CCCC[C@@H]2N1; dPhe(4-I) = N[C@H](Cc1ccc(I)cc1)C(=O)O; 2Nal = N[C@@H](Cc1ccc2ccccc2c1)C(=O)O; d2Nal = N[C@H](Cc1ccc2ccccc2c1)C(=O)O; Nle = CCCC[C@H](N)C(=O)O; Pip′ = not defined here

What was measured:
[1] = Solubility in solvents compatible with RP-HPLC
mMC1R [2] = molecular target: T1, mMC1R (Mus musculus, UniProt Q01727); assay: cell-based
T1 sequence (Q01727 whole entry): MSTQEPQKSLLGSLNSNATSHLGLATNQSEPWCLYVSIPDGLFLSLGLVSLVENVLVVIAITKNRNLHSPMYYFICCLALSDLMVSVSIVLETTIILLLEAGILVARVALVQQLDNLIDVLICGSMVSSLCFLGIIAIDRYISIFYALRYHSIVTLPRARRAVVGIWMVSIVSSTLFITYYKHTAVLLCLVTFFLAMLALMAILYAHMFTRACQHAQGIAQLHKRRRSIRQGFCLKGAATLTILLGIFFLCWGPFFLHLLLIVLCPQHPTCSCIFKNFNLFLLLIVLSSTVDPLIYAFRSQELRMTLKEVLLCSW
Protocol: (§1) Following stimulation, streptavidin donor beads (0.5 μg) and biotinylated-cAMP (0.62 μmol) were added to the wells in a green light environment with 10 μL of lysis buffer (5 mM HEPES, 0.3% Tween-20, 0.1% BSA, pH=7.4) and the plates were incubated in the dark at room temperature for an additional 2 h. Plates were read on a Enspire (PerkinElmer) Alpha-plate reader using a pre-normalized assay protocol (set by the manufacturer).

mMC1R [3] = molecular target: T1, mMC1R; conditions: for mMC1R agonist activity: up to 100 μM
Protocol: as §1

mMC4R [4] = molecular target: T2, mMC4R (Mus musculus, UniProt P56450); set-up: expressed in transfected cells; host or cells: HEK293; conditions: Doering 2017; cited from earlier work
T2 sequence (P56450 whole entry): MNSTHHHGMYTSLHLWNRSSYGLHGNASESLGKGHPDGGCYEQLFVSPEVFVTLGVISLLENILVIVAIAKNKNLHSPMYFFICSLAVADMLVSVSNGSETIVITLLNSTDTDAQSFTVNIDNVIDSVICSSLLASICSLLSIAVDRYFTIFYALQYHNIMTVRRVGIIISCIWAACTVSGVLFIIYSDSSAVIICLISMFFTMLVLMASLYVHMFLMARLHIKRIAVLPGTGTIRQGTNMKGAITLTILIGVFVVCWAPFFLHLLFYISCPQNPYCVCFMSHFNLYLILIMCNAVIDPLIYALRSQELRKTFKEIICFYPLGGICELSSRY

mMC3R [5] = molecular target: T3, mMC3R (Mus musculus, UniProt P33033); set-up: expressed in transfected cells; host or cells: HEK293; conditions: Doering 2017; cited from earlier work
T3 sequence (P33033 whole entry): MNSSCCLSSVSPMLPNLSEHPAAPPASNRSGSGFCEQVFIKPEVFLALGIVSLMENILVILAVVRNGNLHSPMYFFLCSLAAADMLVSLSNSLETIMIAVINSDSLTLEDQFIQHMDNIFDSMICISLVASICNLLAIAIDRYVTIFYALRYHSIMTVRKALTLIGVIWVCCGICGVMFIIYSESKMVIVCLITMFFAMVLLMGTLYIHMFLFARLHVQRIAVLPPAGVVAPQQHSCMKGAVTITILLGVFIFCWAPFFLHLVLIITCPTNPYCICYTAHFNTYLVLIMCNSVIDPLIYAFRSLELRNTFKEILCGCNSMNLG

mMC3R [6] = molecular target: T3, mMC3R; set-up: expressed in transfected cells; host or cells: HEK293; conditions: Doering 2017; cited from earlier work; remark: listed apart in the source
mMC4R [7] = molecular target: T2, mMC4R; set-up: expressed in transfected cells; host or cells: HEK293; conditions: cited from earlier work
mMC5R [8] = molecular target: T4, mMC5R (Mus musculus, UniProt P41149); set-up: expressed in transfected cells; host or cells: HEK293; conditions: Doering 2017; cited from earlier work
T4 sequence (P41149 whole entry): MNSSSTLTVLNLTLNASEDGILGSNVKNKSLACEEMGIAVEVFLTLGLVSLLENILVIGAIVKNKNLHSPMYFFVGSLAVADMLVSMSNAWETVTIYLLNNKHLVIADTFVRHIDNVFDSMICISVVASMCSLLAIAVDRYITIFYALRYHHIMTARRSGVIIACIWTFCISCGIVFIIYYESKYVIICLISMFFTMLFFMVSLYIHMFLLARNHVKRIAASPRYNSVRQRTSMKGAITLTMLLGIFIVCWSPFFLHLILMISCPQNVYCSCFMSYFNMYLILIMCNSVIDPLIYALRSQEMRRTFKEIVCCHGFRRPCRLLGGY

mMC4R [9] = molecular target: T2, mMC4R; assay: cAMP AlphaScreen antagonist assay at mMC4R, NDP-MSH as agonist, HEK293 cells; conditions: for mMC4R antagonist pA2: NDP-MSH as agonist, HEK293 cells stably expressing mMC4R
Protocol: as §1

mMC3R [10] = molecular target: T3, mMC3R; assay: cAMP AlphaScreen antagonist assay at mMC3R, NDP-MSH as agonist, HEK293 cells; conditions: for mMC3R antagonist pA2: NDP-MSH as agonist, HEK293 cells stably expressing mMC3R
mMC3R [11] = molecular target: T3, mMC3R; assay: cAMP AlphaScreen agonist assay at mMC3R, HEK293 cells; conditions: up to 100 μM
Protocol: as §1

mMC4R [12] = molecular target: T2, mMC4R; assay: cAMP AlphaScreen agonist assay at mMC4R, HEK293 cells; conditions: for mMC4R agonist activity: up to 100 μM
Protocol: as §1

mMC5R [13] = molecular target: T4, mMC5R; assay: cAMP AlphaScreen agonist assay at mMC5R, HEK293 cells; conditions: for mMC5R agonist activity: up to 100 μM
Protocol: as §1

MC4R [14] = molecular target: T5, MC4R (Homo sapiens, UniProt P32245); conditions: Nozawa 2007; cited from earlier work
Target sequence in this assay (P32245 whole entry): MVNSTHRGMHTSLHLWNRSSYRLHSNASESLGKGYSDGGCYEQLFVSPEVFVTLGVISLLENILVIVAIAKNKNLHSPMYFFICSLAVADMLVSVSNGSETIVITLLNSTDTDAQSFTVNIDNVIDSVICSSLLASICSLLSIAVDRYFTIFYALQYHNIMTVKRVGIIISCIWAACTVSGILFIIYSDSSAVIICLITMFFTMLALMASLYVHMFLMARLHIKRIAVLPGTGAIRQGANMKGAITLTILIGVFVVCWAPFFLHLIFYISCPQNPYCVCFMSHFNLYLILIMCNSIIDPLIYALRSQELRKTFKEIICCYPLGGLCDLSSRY

human (h)MC4R = human (h)MC4R (Homo sapiens, UniProt P32245); conditions: Chaki 2003; read-out: binding affinity at hMC4R; cited from earlier work
Chain of human (h)MC4R (P32245 whole entry): as above

MC3R [15] = molecular target: T6, MC3R (Homo sapiens, UniProt P41968); conditions: Chaki 2003; read-out: binding affinity at hMC3R; cited from earlier work
Target sequence in this assay (P41968 whole entry): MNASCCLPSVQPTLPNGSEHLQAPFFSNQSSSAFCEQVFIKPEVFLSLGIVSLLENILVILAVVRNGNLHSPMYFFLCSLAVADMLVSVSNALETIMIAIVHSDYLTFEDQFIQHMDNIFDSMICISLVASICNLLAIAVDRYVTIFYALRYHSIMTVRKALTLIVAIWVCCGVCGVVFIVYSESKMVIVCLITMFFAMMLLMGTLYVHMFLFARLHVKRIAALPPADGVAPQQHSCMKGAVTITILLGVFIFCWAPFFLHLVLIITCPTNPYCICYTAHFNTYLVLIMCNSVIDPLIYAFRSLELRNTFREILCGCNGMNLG

MC1R [16] = molecular target: T7, MC1R (Homo sapiens, UniProt Q01726); conditions: unable to displace at up to this concentration; Chaki 2003; read-out: displacement of radiolabeled NDP-MSH at hMC1R; cited from earlier work
Target sequence in this assay (Q01726 whole entry): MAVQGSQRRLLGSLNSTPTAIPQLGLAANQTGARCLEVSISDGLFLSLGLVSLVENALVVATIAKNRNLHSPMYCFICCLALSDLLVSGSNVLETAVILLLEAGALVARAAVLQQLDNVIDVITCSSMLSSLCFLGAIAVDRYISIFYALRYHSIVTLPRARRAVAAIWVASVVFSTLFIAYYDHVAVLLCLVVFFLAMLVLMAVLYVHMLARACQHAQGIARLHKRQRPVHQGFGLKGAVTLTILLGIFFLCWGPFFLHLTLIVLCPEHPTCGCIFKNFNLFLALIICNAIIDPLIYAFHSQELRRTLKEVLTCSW

MC5R [17] = molecular target: T8, MC5R (Homo sapiens, UniProt P33032); conditions: Bednarek, cited from earlier work
T8 sequence (P33032 whole entry, species assumed): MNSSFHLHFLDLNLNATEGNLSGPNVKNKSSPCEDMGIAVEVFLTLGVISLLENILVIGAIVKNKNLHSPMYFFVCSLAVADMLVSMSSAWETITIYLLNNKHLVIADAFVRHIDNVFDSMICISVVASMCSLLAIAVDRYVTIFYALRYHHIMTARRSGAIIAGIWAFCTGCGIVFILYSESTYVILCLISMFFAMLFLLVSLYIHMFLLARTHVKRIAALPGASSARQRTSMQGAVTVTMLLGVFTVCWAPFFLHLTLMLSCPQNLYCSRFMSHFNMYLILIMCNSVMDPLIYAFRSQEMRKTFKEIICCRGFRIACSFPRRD

MC5R [18] = molecular target: T8, MC5R; conditions: Bednarek, cited from earlier work; remark: listed apart in the source
MC1R [19] = molecular target: T7, MC1R; conditions: at 2 μM; cited from earlier work
Target sequence in this assay (Q01726 whole entry, species assumed): as the sequence (Q01726 whole entry) above

MC3R [20] = molecular target: T6, MC3R; conditions: at 2 μM; cited from earlier work
Target sequence in this assay (P41968 whole entry, species assumed): as the sequence (P41968 whole entry) above

MC4R [21] = molecular target: T5, MC4R; conditions: at 2 μM; cited from earlier work
Target sequence in this assay (P32245 whole entry, species assumed): as the sequence (P32245 whole entry) above

MC1R [22] = molecular target: T7, MC1R; conditions: unable to displace at up to this concentration; read-out: displacement of NDP-MSH at the MC1R; cited from earlier work
Target sequence in this assay (Q01726 whole entry, species assumed): as the sequence (Q01726 whole entry) above

MC3R [23] = molecular target: T6, MC3R; conditions: unable to displace at up to this concentration; read-out: displacement of NDP-MSH at the MC3R; cited from earlier work
Target sequence in this assay (P41968 whole entry, species assumed): as the sequence (P41968 whole entry) above

MC4R [24] = molecular target: T5, MC4R; conditions: unable to displace at up to this concentration; read-out: displacement of NDP-MSH at the MC4R; cited from earlier work
Target sequence in this assay (P32245 whole entry, species assumed): as the sequence (P32245 whole entry) above

MC3R [25] = molecular target: T6, MC3R; conditions: Grieco 2002; cited from earlier work
Target sequence in this assay (P41968 whole entry): as the sequence (P41968 whole entry) above

MC4R [26] = molecular target: T5, MC4R; conditions: Grieco 2002; cited from earlier work
Target sequence in this assay (P32245 whole entry): as the sequence (P32245 whole entry) above

CC(=O)N[C@H](Cc1ccc2ccccc2c1)C(=O)N[C@H](Cc1ccc2ccccc2c1)C(=O)N[C@H](Cc1ccc2ccccc2c1)C(=O)N[C@H](Cc1ccc2ccccc2c1)C(N)=O [Ac-DNal(2′)-DNal(2′)-DNal(2′)-DNal(2′)-NH2] (Ac-[d2Nal][d2Nal][d2Nal][d2Nal]-NH2)
solubility in solvents compatible with RP-HPLC [1]: insoluble

CC(=O)N[C@H](Cc1ccc2ccccc2c1)C(=O)N[C@@H](CCCNC(=N)N)C(=O)N[C@H](Cc1ccc2ccccc2c1)C(=O)N[C@H](CCCCN)C(N)=O [compound 13, Ac-DNal(2′)-Arg-DNal(2′)-DLys-NH2] (Ac-[d2Nal]R[d2Nal][dK]-NH2)
EC50 (mMC1R [2]): 400 to 7900 nM

CC(=O)N[C@H](Cc1ccc2ccccc2c1)C(=O)N[C@@H](CCCNC(=N)N)C(=O)N[C@H](Cc1ccc2ccccc2c1)C(=O)N[C@H](Cc1ccc2ccccc2c1)C(N)=O [compound 14] (Ac-[d2Nal]R[d2Nal][d2Nal]-NH2)
EC50 (mMC1R [2]): 400 to 7900 nM

CC(=O)N[C@H](Cc1ccc2ccccc2c1)C(=O)N[C@@H](CCCNC(=N)N)C(=O)N[C@H](Cc1ccc2ccccc2c1)C(=O)N[C@@H](CCCNC(=N)N)C(N)=O [compound 15, Ac-DNal(2′)-Arg-DNal(2′)-Arg-NH2] (Ac-[d2Nal]R[d2Nal]R-NH2)
EC50 (mMC1R [2]): 400 to 7900 nM

CC(=O)N[C@H](Cc1ccc2ccccc2c1)C(=O)N[C@@H](CCCNC(=N)N)C(=O)N[C@H](Cc1ccc(I)cc1)C(=O)N[C@H](Cc1ccc2ccccc2c1)C(N)=O [compound 20] (Ac-[d2Nal]R[dPhe(4-I)][d2Nal]-NH2)
EC50 (mMC1R [3]; read-out: mMC1R agonist EC50): 5000 nM
mMC1R agonist activity (mMC1R [3]): full agonist activity
mMC4R antagonist pA2, previously reported (mMC4R [4]): 5.9
mMC3R antagonist pA2, previously reported (mMC3R [5]): 5.6
mMC3R partial agonist efficacy, % of the maximal NDP-MSH signal, previously reported (mMC3R [6]): 40%
mMC4R partial agonist efficacy, % of the maximal NDP-MSH signal, previously reported (mMC4R [7]; Doering 2017): 37%
mMC5R partial agonist efficacy, % of the maximal NDP-MSH signal, previously reported (mMC5R [8]): 43%
mMC4R antagonist pA2 (mMC4R [9]): 6.5
mMC3R antagonist pA2 (mMC3R [10]): 6.1

CC(=O)N[C@H](Cc1ccc2ccccc2c1)C(=O)N[C@@H](CCCNC(=N)N)C(=O)N[C@@H](Cc1ccc2ccccc2c1)C(=O)N[C@H](CCCCN)C(N)=O [compound 22, Ac-DNal(2′)-Arg-Nal(2′)-DLys-NH2] (Ac-[d2Nal]R[2Nal][dK]-NH2)
EC50 (mMC1R [2]): 400 to 7900 nM
mMC4R antagonist pA2 (mMC4R [9]): 7.8

CC(=O)N[C@H](Cc1ccc(I)cc1)C(=O)N[C@H](Cc1ccc2ccccc2c1)C(=O)N[C@H](Cc1ccc(I)cc1)C(=O)N[C@@H](CCCNC(=N)N)C(N)=O [compound 33, Ac-DPhe(pI)-DNal(2′)-DPhe(pI)-Arg-NH2] (Ac-[dPhe(4-I)][d2Nal][dPhe(4-I)]R-NH2)
mMC1R agonist activity (mMC1R [3]): partially stimulate
mMC3R agonist activity (mMC3R [11]): inactive
mMC4R agonist activity (mMC4R [12]): inactive
EC50 (mMC5R [13]): 30 to 800 nM
EC50 (mMC5R [13]; read-out: mMC5R agonist EC50): 130 nM
mMC5R agonist activity (mMC5R [13]): full mMC5R agonists
mMC3R antagonist activity (mMC3R [10]; at the concentrations assayed): did not act as antagonists

Ac-DNal(2′)-Arg-DNal(2′)
IC50 (MC4R [14]): 36.5 nM

Ac-DNal(2′)-Arg-Nal(2′) [MCL0020]
IC50 (human (h)MC4R): 11.6 nM
IC50 (MC3R [15]): 1120 nM
IC50 (MC1R [16]): > 10000 nM
IC50 (MC4R [14]): 15.4 nM

Ac-His-DPhe-Arg-Trp-NH2 [reference compound]
agonist potency at the mMC4R (mMC4R [7]; Haskell-Luevano 2001): nanomolar

Ac-Nle-c[Asp-Oic-DBip-Pip-Trp-Lys]-NH2
EC50 (MC5R [17]; J. Med. Chem. 2007, read-out: concentration activating the MC5R): 0.99 nM
IC50 (MC5R [18]; J. Med. Chem. 2007, read-out: concentration displacing radiolabeled NDP-MSH at the MC5R): 0.95 nM
activation of the MC1R (MC1R [19]): up to 40%
activation of the MC3R (MC3R [20]): up to 40%
activation of the MC4R (MC4R [21]): up to 40%
IC50 (MC1R [22]): > 5000 nM
IC50 (MC3R [23]): > 5000 nM
IC50 (MC4R [24]): > 5000 nM

Ac-Nle-c[Asp-Pro-DNal(2′)-Arg-Trp-Lys]-NH2 [PG901]
hMC3R antagonist pA2 (MC3R [25]): 9.0
hMC4R antagonist pA2 (MC4R [26]): 9.3

Ac-Oic-DBip-Pip-Trp-NH2
EC50 (MC5R [17]; Peptides 2007, read-out: agonist potency at the MC5R): 1200 nM

Ac-Phe(pI)-Nal(2′)-Phe(pI)-Arg-NH2 [compound 49]
mMC1R agonist activity (mMC1R [3]): partially stimulate
mMC3R agonist activity (mMC3R [11]): inactive
mMC4R agonist activity (mMC4R [12]): inactive
mMC5R agonist activity (mMC5R [13]): did not possess agonist activity

Ac-Ser-Tyr-Ser-Nle-Glu-Oic-DBip-Pip-Trp-Gly-Lys-Pro-Val-NH2 (Ac-SYS[Nle]E[Oic][dBip][Pip′]WGKPV-NH2; reading uncertain; also: printed as Ac-Ser-Tyr-Ser-Nle-Glu-Oic-DBip-Pip-Trp-Gly-Lys-Pro-Val-NH2)
MC5R agonist potency (MC5R [17]; Peptides 2007): sub-nanomolar
selectivity for the MC5R by radiolabeled 125I-NDP-MSH displacement (MC5R [18]; Peptides 2007): greater than 3200 fold

Ac-[dPhe(4-I)]R[2Nal]R-NH2 [compound 48]
mMC4R partial activation, % of the maximal NDP-MSH signal (mMC4R [12]; 100 μM): 25%
MC4R antagonist potency compared to endogenous AGRP(86-132) (mMC4R [9]): about equipotent
mMC4R antagonist pA2 (mMC4R [9]): 9.0
mMC3R antagonist pA2 (mMC3R [10]): 7.8
